According to US11198680B2 (BioAxone BioSciences, Inc., priority 2016, dated 2021):
Like-named read-outs stand apart in the source and are kept apart here.

How the values were obtained:
[1] = tested on: Rho/ROCK activity (MLC2 diphosphorylation) in HUVECs; assay: LPA-treated HUVECs, pMLC2 T18/S19 immunoblot; assay type: cell-based, human
Procedure: Cell lines were exposed to each dose for 1 hr, and then are stimulated with 20 μM LPA for either 5 min or 1 hr as described below. All experiments were conducted in triplicate and analyzed by two independent assessors blinded to both cell line and treatment.
Cells were subjected to biochemical analysis of diphosphorylated MLC2 (Threonine 18/Serine 19 phosphorylation sites) and cofilin (Serine 9 phosphorylation site) using SDS-PAGE and immunoblotting. Cells were plated in 24-well tissue culture plates coated with 70 μg/ml rat collagen-1 (Corning; Corning, N.Y.), and grown for 2 d to 3 d at 37° C./5% CO2 until confluency. […] Then medium was exchanged for Medium 200 supplemented with 0.1% HSA (Sigma-Aldrich) and 20 μM of LPA (Santa Cruz Biotech; Santa Cruz, Calif.) and incubated for 5 min. After LPA stimulation, proteins were extracted from cells by lysis with RIPA buffer supplemented with HALT complete protease/phosphatase inhibitor (ThermoFisher, Waltham, Mass.), reduced and denatured using Laemmli sample buffer (BioRad, Hercules, Calif.)/beta-mercaptoethanol and subjected to SDS-PAGE.
Denatured samples were electrophoresed in reducing 10% Bis-Tris-gels polyacrylamide gels (Novex; Thermo-Fisher, Waltham, Mass.) and were transferred onto 0.25 μm PVDF membranes (EMD Millipore, Billerica, Mass.). Membranes are probed using amti-pMLC2 T18/S19 (1:500; Cell Signaling, Danvers, Mass.) or anti-pCofilin S9 (1:500, Cell Signaling, Danvers, Mass.) and anti-glyceraldehyde 3-phosphate dehydrogenase loading control (GAPDH, 1:10000; Abcam). Protein levels were detected using chemiluminescence substrate (Super Signal West, ThermoFisher, Waltham, Mass.) and images captured using a FluoroChem SP Imaging System.

ROCK1 [2] = assay: KINOMEscan kinome screen; conditions: percent of negative control binding; first ROCK1 row
Source text: The KINOMEscan™ screening platform (DiscoverX, Fremont, Calif.) employs a novel active site-directed competition binding assay to quantitatively measure interactions between test compounds and more than 450 human kinases and disease relevant mutant variants. […] Compounds that bind the kinase active site and directly (sterically) or indirectly (allosterically) prevent kinase binding to the immobilized ligand, will reduce the amount of kinase captured on the solid support. […] Screening “hits” are identified by measuring the amount of kinase captured in test versus control samples by using a quantitative, precise and ultra-sensitive qPCR method that detects the associated DNA label.
Kinase-tagged T7 phage strains were grown in parallel in 24-well blocks in an E. coli host derived from the BL21 strain. E. coli were grown to log-phase and infected with T7 phage from a frozen stock (multiplicity of infection=0.4) and incubated with shaking at 32° C. until lysis (90-150 minutes). The lysates were centrifuged (6,000×g) and filtered (0.2 μm) to remove cell debris. The remaining kinases were produced in HEK-293 cells and subsequently tagged with DNA for qPCR detection (Wein, et al. (2016) Nat. Comm. 7). […] Test compounds were prepared as 40× stocks in 100% DMSO and directly diluted into the assay. All reactions were performed in polypropylene 384-well plates in a final volume of 0.02 ml.

ROCK2 [3] = molecular target: T1, ROCK2 (Homo sapiens (Human), UniProt O75116); assay: ROCK2 inhibition curves, MYPT1 substrate plate assay; assay type: biochemical; conditions: purified ROCK2, MYPT1 substrate
Procedure: Each compound was dissolved at 100 mM in DMSO. This compound-DMSO solution is diluted to 500 μM in dH2O. Serial dilutions were prepared so that a semi-log range of compound is present after being diluted 5× in other assay reagents, from 100 μM through 1 nM.
10 μL of each concentration of each compound was added in duplicate to individual wells of a 96-well Maxisorp plate (ThermoFisher) pre-coated with the ROCK2 substrate MYPT1 (ThermoFisher). dH2O is added as a negative control.
Using a multichannel pipettor, […] of final volume per well was made by the addition of the following of each solution to begin the reaction: 10 μL 20 mM MOPS pH 7.2, 25 mM β-glycerophosphate, 5 mM EGTA, 1 mM Na3VO4, and 1 mM DTT, 10 μL 50 μM ATP, 10 μL 75 mM MgCl2, and 10 μL 1 mU/μL ROCK2 solution. […]
100 μL TMB/E solution was added to each well with a multichannel pipette. Upon sufficient color development, the reaction was stopped using 100 μL stop solution and absorbance read using a Wallac Victor2 plate reader at 450 nm.
Because absorbance values proportional to ROCK2 activity, plotting absorbance at 450 nm versus final concentration of metabolite and parent compound provides inhibition curves. Relative inhibitory profiles were determined through 4PL analysis of these curves. Variations in calculated IC50 are common before assay optimization due to variations in experimental variables.

ROCK1 [4] = molecular target: T2, ROCK1 (Homo sapiens (Human), UniProt Q13464); assay: Direct filter-binding radiometric kinase assay, IC50 determination; assay type: biochemical
Procedure: Variations in ATP concentrations were tested to better understand potential selectivity in ischemic and diseased tissue where ATP concentrations may be low and impact selectivity.
[…] Both services use a direct filter-binding, radiometric kinase assay with slight variation in protocol.
The top concentration tested was 100 μM for both services. Test compounds were prepared in 100% DMSO at 50× final test concentration and were diluted to 1× in the assay with a final DMSO concentration of 2%.
For one assay, the substrate […] (SEQ ID NO:1) (30 μM) was mixed with reaction buffer (Table 4) and the kinase domain from either the ROCK1 or ROCK2 (as indicated in Table 4). Next, the compounds (in DMSO) were delivered into the mixture via acoustic mixing technology (Echo550, nanoliter range) (SelectScience, Waltham, Mass.), and incubated at RT for 20 min. […] Reactions were then spotted onto P81 ion exchange paper followed by scintillation counting.
The reaction was stopped by the addition of 3% phosphoric acid and 10 μL of the reaction was spotted onto P30 filtermat, washed 3 times in 75 mM phosphoric acid and once in methanol prior to scintillation counting.

ROCK1 [5] = molecular target: T2, ROCK1; assay: biochemical
Procedure: The assay is performed by combining the DNA-tagged kinase, immobilized ligand, and a test compound. The ability of the test compound to compete with the immobilized ligand is measured via quantitative PCR of the DNA tag.
The highest concentration tested was 30 μM.

[6] = tested on: ROCK2 activation (phospho-cofilin); assay: Transient MCAO stroke model, phospho-cofilin Western blot left versus right brain; assay type: in vivo, mouse
Procedure: The murine intraluminal monofilament model of middle cerebral artery occlusion (MCAO) is used on mice in this study. MCAO involves the insertion of a surgical filament into the external carotid artery and threading it forward into the internal carotid artery until the tip occludes the origin of the MCA, resulting in a cessation of blood flow and subsequent brain infarction in the MCA territory. The technique is used herein to model transient occlusion. If the filament is removed after 1 h, reperfusion is achieved (transient MCAO). This study determines the most efficacious dose and route of administration that reduce Rho-kinase 2 (ROCK2) activation following transient MCAO-induced stroke in mice. The pharmacodynamic response is also determined in this study.
Twenty-eight 9-wk old C57BL/6 (Charles River Laboratories) were used in this study. For surgery, the mouse was placed in a supine position on an infrared heating pad. The fur over the ventral neck was shaved and the skin was disinfected with 70% ethanol and povidone iodine. Under a stereo dissecting microscope, a 1 cm midline incision was made on the neck and retractors were used to expose the left common carotid artery (CCA), the external carotid artery (ECA) and the internal carotid artery (ICA). The arteries were carefully dissected to free them from surrounding nerves and fascia. The ECA was dissected further distally and two 8-0 silk sutures are tied around the ECA stump and a vascular clamp was applied at the bifurcation of the CCA into the ECA and ICA. A small incision was made at the end of ECA stump with Vannas-style spring scissors. A blunt 5-0 monofilament suture (Doccol) was inserted into the incision and advanced from the lumen of the ECA into the ICA for a distance of 9-10 mm beyond the bifurcation of CCA to occlude the origin of MCA. For the mouse model, a distance of 9 mm-11 mm rostral to the CCA bifurcation is inserted. After 60 min., the monofilament was removed. The incision was sutured with 4.0 prolene sutures. […] The mouse is allowed to recover on a heating pad until thermoregulation is re-established.
For Western blot analysis, mice were anesthetized using isoflurane and decapitated. […]
20 μL protease inhibitor (Halt, Protease, Fisher Scientific, Pittsburgh, Pa.) and 10 μL phosphatase inhibitor (Fisher Scientific) were added to 1 mL RIPA buffer (Santa Cruz Biotechnology, Dallas, Tex.). […] The protein concentration of each sample was determined using the DC Protein Assay Kit and following the manufacturer's instructions.
The left and right hemispheres of each brain were homogenized and prepared for Western blotting, and the signal of phospho-cofilin was measured quantitatively by densitometry compared to an internal standard, cyclophilin. […]

ROCK2 [7] = molecular target: T1, ROCK2; assay: Direct filter-binding radiometric kinase assay, IC50 determination; assay type: biochemical

T2 sequence (Q13464 2-1354 limits assumed): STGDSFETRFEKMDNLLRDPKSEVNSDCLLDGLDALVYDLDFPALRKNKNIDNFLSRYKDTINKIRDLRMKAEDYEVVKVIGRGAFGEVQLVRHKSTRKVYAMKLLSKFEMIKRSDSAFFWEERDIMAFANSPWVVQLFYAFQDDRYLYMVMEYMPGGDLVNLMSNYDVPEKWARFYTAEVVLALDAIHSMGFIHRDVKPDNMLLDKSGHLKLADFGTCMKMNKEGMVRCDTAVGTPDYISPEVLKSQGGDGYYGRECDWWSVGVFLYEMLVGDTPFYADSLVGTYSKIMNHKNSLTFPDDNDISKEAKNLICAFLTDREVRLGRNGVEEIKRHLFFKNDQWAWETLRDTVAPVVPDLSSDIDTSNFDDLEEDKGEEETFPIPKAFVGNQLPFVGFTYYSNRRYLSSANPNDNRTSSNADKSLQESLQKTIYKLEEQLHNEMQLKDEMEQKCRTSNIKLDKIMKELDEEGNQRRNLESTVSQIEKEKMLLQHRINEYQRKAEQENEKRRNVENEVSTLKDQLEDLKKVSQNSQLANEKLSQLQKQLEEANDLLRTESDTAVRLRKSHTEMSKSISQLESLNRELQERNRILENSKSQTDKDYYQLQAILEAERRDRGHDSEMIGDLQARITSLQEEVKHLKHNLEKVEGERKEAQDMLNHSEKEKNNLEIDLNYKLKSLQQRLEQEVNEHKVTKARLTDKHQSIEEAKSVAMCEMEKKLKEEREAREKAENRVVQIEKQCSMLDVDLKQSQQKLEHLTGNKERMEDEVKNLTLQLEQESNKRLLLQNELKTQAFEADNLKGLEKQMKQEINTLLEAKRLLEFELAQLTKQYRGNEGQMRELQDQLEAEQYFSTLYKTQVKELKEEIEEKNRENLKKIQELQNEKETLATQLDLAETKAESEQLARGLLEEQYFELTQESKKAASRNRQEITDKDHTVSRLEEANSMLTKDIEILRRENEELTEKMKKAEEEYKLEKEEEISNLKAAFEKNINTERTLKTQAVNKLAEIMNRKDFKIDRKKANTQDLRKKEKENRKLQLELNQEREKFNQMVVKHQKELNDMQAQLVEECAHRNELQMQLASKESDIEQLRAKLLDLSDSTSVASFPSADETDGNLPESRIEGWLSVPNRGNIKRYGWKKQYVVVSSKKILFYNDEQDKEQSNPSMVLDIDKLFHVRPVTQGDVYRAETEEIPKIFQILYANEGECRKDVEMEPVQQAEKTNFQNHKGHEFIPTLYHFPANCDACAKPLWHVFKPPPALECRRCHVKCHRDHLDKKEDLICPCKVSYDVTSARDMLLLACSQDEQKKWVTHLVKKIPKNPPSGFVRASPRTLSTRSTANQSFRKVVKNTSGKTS
T1 sequence (O75116 whole entry, species assumed): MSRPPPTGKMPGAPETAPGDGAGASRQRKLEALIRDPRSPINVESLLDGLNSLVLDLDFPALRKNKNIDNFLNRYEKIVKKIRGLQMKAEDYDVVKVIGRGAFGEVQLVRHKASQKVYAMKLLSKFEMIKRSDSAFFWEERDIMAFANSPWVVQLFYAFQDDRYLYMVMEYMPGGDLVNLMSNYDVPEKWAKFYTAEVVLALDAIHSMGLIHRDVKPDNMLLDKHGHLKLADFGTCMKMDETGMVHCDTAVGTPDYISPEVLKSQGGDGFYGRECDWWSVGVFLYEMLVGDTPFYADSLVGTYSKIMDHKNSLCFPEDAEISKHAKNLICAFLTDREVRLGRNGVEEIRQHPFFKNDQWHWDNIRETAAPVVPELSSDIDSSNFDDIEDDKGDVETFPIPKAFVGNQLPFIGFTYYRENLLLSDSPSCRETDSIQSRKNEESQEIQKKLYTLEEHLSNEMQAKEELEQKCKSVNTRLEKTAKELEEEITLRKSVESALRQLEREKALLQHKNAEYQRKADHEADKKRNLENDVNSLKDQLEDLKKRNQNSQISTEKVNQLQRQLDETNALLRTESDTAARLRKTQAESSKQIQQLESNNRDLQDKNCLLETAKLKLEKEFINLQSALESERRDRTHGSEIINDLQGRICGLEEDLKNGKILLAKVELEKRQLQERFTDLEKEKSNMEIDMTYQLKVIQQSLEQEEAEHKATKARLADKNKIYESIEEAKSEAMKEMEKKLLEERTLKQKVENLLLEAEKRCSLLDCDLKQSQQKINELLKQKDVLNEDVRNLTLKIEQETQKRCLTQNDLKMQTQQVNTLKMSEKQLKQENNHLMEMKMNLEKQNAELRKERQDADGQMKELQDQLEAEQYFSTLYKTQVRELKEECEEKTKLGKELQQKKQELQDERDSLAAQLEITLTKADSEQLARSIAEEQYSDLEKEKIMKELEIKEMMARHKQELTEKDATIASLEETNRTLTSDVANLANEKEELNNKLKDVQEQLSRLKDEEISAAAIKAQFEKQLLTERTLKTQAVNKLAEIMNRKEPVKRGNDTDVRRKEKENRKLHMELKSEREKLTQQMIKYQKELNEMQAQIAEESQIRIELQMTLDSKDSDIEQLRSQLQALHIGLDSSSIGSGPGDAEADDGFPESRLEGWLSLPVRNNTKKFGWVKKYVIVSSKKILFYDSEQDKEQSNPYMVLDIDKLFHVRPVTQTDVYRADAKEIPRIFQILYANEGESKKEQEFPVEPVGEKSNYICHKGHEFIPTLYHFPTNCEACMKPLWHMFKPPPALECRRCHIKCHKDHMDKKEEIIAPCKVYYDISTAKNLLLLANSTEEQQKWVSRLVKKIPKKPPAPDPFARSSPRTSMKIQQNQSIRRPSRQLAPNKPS

## C[C@@H](N)C1CCN(S(=O)(=O)c2cccc3c(=O)[nH]ccc23)CC1 [1-hydroxy-BA-1049 (R)]
[1]; 20 μM LPA
  concentration fully abolishing MLC2 diphosphorylation: ≥ 10 µM
[1]; 1-100 μM 1 hr, 20 μM LPA 5 min
  effect on MLC2 diphosphorylation (pMLC2 T18/S19): reduce MLC2 diphosphorylation
ROCK1 [2]
  % Negative Binding, ROCK1: 0.15%
ROCK2 [3]
  inhibitory activity for ROCK2 relative to parent BA-1049 (R): ½ log more potent as an inhibitor of ROCK2 activity than the parent

## C[C@@H](N)C1CCN(S(=O)(=O)c2cccc3cnccc23)CC1 [BA-1049 (R)]
ROCK1 [4]; 10 μM ATP, Table 2, read-out: Compound IC50 ROCK1
  IC50: 3900 nM
ROCK1 [4]; Compound IC50 ROCK1 10 μM ATP, CRO Eurofins, 10 μM ATP
  IC50: 3900 nM
ROCK1 [4]; Compound IC50 ROCK1 10 μM ATP, CRO Reaction Biology, 10 μM ATP
  IC50: 690 nM
ROCK1 [4]; Compound IC50 ROCK1 70 μM ATP, Km ATP 70 μM, Table 3
  IC50: 29600 nM
ROCK1 [4]; Compound IC50 ROCK1 70 μM ATP, Km ATP 70 μM, Table 7
  IC50: 29600 nM
ROCK1 [5]; ROCK1 KD, average of duplicate determinations, Table 5
  Kd: 99 nM
ROCK1 [5]; ROCK1 Kd, Table 1
  Kd: 110 nM
[6]; 10 mg/kg after reperfusion, examined 4 hr or 24 hr
  duration of efficacy on phospho-cofilin: at least 24 hr
[6]; daily repeat dosing
  minimal effective levels: less than 1 mg/kg
[6]; single intraperitoneal application, phospho-cofilin left versus right brain
  minimal effective dose to reverse ROCK activation: 1 mg/kg
ROCK2 [7]; 10 μM ATP, Table 2, read-out: Compound IC50 ROCK2
  IC50: 240 nM
ROCK2 [7]; Compound IC50 ROCK2 10 μM ATP, CRO Eurofins, 10 μM ATP
  IC50: 240 nM
ROCK2 [7]; Compound IC50 ROCK2 10 μM ATP, CRO Reaction Biology, 10 μM ATP
  IC50: 340 nM
ROCK2 [7]; Compound IC50 ROCK2 15 μM ATP, Km ATP 15 μM, Table 3
  IC50: 340 nM
ROCK2 [7]; Compound IC50 ROCK2 15 μM ATP, Km ATP 15 μM, Table 7
  IC50: 340 nM
ROCK2 [7]; read-out: Compound IC50 ROCK2 10 μM ATP, CRO Eurofins, 10 μM ATP
  IC50: 240 nM
